The source of these data is publication PMC5407626 (PLoS ONE, 2017).

By EC50 is commonly meant the concentration that produces a half-maximal response. The low end stands for a more potent agent, the high end for a less potent agent.

One assay addresses T1, recombinant mouse BCO1 (Mus musculus, UniProt Q9JJS6).
T1 construct: His-tag; made in house; host or cells: E. coli
T1 sequence (Q9JJS6 1-566): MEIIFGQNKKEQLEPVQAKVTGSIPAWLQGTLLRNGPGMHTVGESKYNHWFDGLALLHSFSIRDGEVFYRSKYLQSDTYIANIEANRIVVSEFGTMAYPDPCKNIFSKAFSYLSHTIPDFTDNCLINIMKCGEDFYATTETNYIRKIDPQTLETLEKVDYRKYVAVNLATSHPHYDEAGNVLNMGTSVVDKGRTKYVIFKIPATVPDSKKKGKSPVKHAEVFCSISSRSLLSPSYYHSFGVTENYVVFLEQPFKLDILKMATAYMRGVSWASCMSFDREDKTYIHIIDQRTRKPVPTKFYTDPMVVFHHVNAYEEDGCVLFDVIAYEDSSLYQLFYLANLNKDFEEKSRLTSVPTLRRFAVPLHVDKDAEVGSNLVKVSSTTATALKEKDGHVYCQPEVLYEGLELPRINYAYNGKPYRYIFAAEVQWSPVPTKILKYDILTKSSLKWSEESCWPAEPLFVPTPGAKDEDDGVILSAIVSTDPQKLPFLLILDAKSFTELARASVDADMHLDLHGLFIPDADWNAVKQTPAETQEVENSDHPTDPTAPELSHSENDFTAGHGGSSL
Briefly: In vitro inhibition of recombinant mouse BCO1 activity. It is filed as biochemical. Conditions: inhibitor 0–200 μM. The text has this:
Recombinant His-tag mouse BCO1 was produced in E.coli and purified using Talon CellThru (Clontech Labs, Inc., Mountain View, CA) resin as described previously. β-carotene was delivered in 1% octylthioglucoside. […] All other inhibitors were delivered in ethanol. […] The final concentration of ethanol in all samples was 1%. […] Data plotted as means±standard deviation; n = 3; […] Analysis was done in C57BL/6 wt (3 animals) and Bco1^-/- mice (13 animals).

Assay [1] concerns the target T2, RARβ (Homo sapiens, UniProt P10826).
T2 sequence (P10826 183-417 limits assumed): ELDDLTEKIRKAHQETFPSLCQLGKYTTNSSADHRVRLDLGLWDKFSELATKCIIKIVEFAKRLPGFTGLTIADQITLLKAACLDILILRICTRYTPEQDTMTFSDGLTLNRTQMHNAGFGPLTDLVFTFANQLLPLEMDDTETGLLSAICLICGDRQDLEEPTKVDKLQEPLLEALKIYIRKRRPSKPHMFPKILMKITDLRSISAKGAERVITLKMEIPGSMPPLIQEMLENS
Briefly: GeneBLAzer RAR-beta DA assay, agonist mode. It is filed as cell-based. On the procedure: (§1) The potency of agonists and antagonists was measured by GeneBLAzer RAR-beta DA Assay Kit (ThermoFisher Scientific) according to the manufacturer’s recommendations.
The phenylretinamides may have the ability to modulate the expression of proteins and induce cell apoptosis via RAR-dependent and -independent pathways. […] Human retina-derived cells in culture show differences in expression of RAR receptors. […] Clonetics HRPE primary human cells specifically express only RARβ [50].

Assay [2] addresses T2, RARβ. Briefly: GeneBLAzer RAR-beta DA assay, antagonist mode (competition with at-RA). It is filed as cell-based. Conditions: at-RA 0.5–1.5 nM; tested 10^−5 to 10^−9 M. On the procedure: as §1
The phenylretinamides may have the ability to modulate the expression of proteins and induce cell apoptosis via RAR-dependent and -independent pathways. […] Additionally, apoptosis of neuroblastoma cell lines was blocked by two retinoic acid receptor (RAR)-β/γ-specific antagonists, but not by a RARα-specific antagonist. […] However, in this case the specific RARα-specific antagonist AGN194301 could block fenretinde-induced apoptosis. […] Human retina-derived cells in culture show differences in expression of RAR receptors. […] Clonetics HRPE primary human cells specifically express only RARβ [50].
Fluorescence was measured at excitation (ex) 409 nm/emission (em) 460 and at ex 409nm/em 530 nm and the ratio was determined and plotted against a range of concentrations (10^−5 to 10^−9 M) of the tested compounds.

The next assay has as its target RBP4 (Homo sapiens, UniProt P02753). Put plainly: Binding to RBP4. Conditions: data not shown.

Take `CCOc1ccc(NC(=O)/C=C(C)/C=C/C=C(C)/C=C/C2=C(C)CCCC2(C)C)cc1` [EPR, N-[4-ethoxyphenyl]retinamide]: the “effect on BCO1 activity” value at recombinant mouse BCO1 is reported as “does not inhibit BCO1 activity”. The compound also returned an EC50 on RARβ [1] of 4.4 µM. For the same compound, the “competition with all-trans-retinoic acid” value at RARβ [2] was “cannot compete”. The “RBP4 binding compared with MPR” value at RBP4 is listed as “less potent inhibitor”.
